Type in all cases: cell-based
Test [1] has as its system HTT mRNA. Description: RT-qPCR splicing assay monitoring HTT canonical (CJ) and alternative (AJ) junction mRNA in A673 or K562 cells. To be noted: 24 hours compound treatment, top dose 10 uM. As for the experimental part: (§1) Compounds described herein were used to modulate RNA transcript abundance in cells. The expression of a target mRNA was measured by detecting the formation of an exon-exon junction in the canonical transcript (CJ). A compound mediated exon-inclusion event was detected by observing an increase in formation of a new junction with an alternative exon (AJ). Real-time qPCR assays were used to detect these splicing switches and interrogate the potency of various compounds towards different target genes. A high-throughput real time quantitative PCR (RT-qPCR) assay was developed to measure these two isoforms of the mRNA (CJ and AJ) for an exemplary gene, HTT, together with a control housekeeping gene, GAPDH or GUSB or PPIA, used for normalization. Briefly, the A673 or K562 cell line was treated with various compounds described herein (e.g., compounds of Formula (I)). After treatment, the levels of the HTT mRNA targets were determined from each sample of cell lysate by cDNA synthesis followed by qPCR.
• Cells-to-CT 1-step kit: ThermoFisher A25602, Cells-to-CT lysis reagent: ThermoFisher 4391851C, TaqMan™ Fast Virus 1-Step Master Mix: ThermoFisher 4444436 • GAPDH: VIC-PL, ThermoFisher 4326317E (Assay: Hs99999905_m1)—used for K562/suspension cell lines • GUSB: VIC-PL, ThermoFisher 4326320E (Assay: Hs99999908_m1)—used for K562/suspension cell lines • PPIA: VIC-PL, ThermoFisher 4326316E (Assay: Hs99999904_m1)—used for A673/adherent cell lines
(§2) The A673 cell line was cultured in DMEM with 10% FBS. Cells were diluted with full growth media and plated in a 96-well plate (15,000 cells in 100 ul media per well). The plate was incubated at 37° C. with 5% CO2 for 24 hours to allow cells to adhere. An 11-point 3-fold serial dilution of the compounds was made in DMSO then diluted in media in an intermediate plate. Compounds were transferred from the intermediate plate to the cell plate with the top dose at a final concentration of 10 uM in the well. Final DMSO concentration was kept at or below 0.25%. The cell plate was returned to the incubator at 37° C. with 5% CO2 for an additional 24 hours.
(§3) The K562 cell line was cultured in IMDM with 10% FBS. For K562, cells were diluted with full growth media and plated in either a 96-well plate (50,000 cells in 50 uL media per well) or a 384-well plate (8,000-40,000 cells in 45 uL media per well). An 11-point 3-fold serial dilution of the compounds were made in DMSO then diluted in media in an intermediate plate. Compound was transferred from the intermediate plate to the cell plate with the top dose at a final concentration of 10 uM in the well. Final DMSO concentration was kept at or below 0.25%. Final volume was 100 uL for 96-well plate and 50 uL for 384-well plate. The cell plate was then placed in an incubator at 37° C. with 5% CO2 for 24 hours.
(§4) The cells were then gently washed with 50 uL-100 uL cold PBS before proceeding to addition of lysis buffer. 30 uL-50 uL of room temperature lysis buffer with DNAse I (and optionally RNAsin) was added to each well. Cells were shaken/mixed thoroughly at room temperature for 5-10 minutes for lysis to take place and then 3 uL-5 uL of room temperature stop solution was added and wells were shaken/mixed again. After 2-5 minutes, the cell lysate plate was transferred to ice for RT-qPCR reaction setup. The lysates could also be frozen at −80° C. for later use.
In some cases, a direct lysis buffer was used. An appropriate volume of 3×lysis buffer (10 mM Tris, 150 mM NaCl, 1.5%-2.5% Igepal and 0.1-1 U/uL RNAsin, pH 7.4) was directly added to either K562 or A673 cells in media and mixed by pipetting 3 times. The plates were then incubated at room temperature with shaking/rocking for 20-50 minutes to allow for lysis to take place. After this time, the cell lysate plate was transferred to ice to set up for the RT-qPCR reactions. The lysates could also be frozen at −80° C. for later use. […]

The subject of test [2] is Target C. As to the kind of experiment: Gene panel canonical junction RT-qPCR assay: Target C. The note with it: read-out: Target C (IC50, decrease in CJ mRNA levels). As for the experimental part:
as §1, §2, §3, §4
(§5) In some cases, a direct lysis buffer was used. An appropriate volume of 3×lysis buffer (10 mM Tris, 150 mM NaCl, 1.5%-2.5% Igepal and 0.1-1 U/uL RNAsin, pH 7.4) was directly added to either K562 or A673 cells in media and mixed by pipetting 3 times. The plates were then incubated at room temperature with shaking/rocking for 20-50 minutes to allow for lysis to take place. After this time, the cell lysate plate was transferred to ice to set up for the RT-qPCR reactions. The lysates could also be frozen at −80° C. for later use.
(§6) To set up 10 uL RT-qPCR reactions, cell lysates were transferred to 384-well qPCR plates containing the master mix according to the table below. The plates were sealed, gently vortexed, and spun down before the run. The volumes were adjusted accordingly in some instances where the reaction was carried in 20 uL. The table below summarizes the components of the RT-qPCR reactions:
(§7) The RT-qPCR reaction was performed using a QuantStudio (ThermoFisher) under the following fast cycling conditions. […]

In test [3] the test system is HTT. Description: Gene panel canonical junction RT-qPCR assay: HTT. To be noted: read-out: HTT (IC50, decrease in CJ mRNA levels). The protocol: as §1, §2, §3, §4, §5, §6, §7
(In general: Real-time PCR tracks product formation cycle by cycle.)

Test [4] has as its system SMN2. Description: Gene panel canonical junction RT-qPCR assay: SMN2. The note with it: read-out: SMN2 (IC50, decrease in CJ mRNA levels). The protocol: as §1, §2, §3, §4, §5, §6, §7
The mark [5] stands for this setting: decrease in CJ mRNA, read-out: HTT CJ AC50.
[6] abbreviates: increase in AJ mRNA, read-out: HTT AJ AC50.

Like-named read-outs stand apart in the source and are kept apart here.

The term AC50 denotes the concentration giving half of the maximal activity seen. What is called IC50 is the midpoint of a concentration-inhibition curve. For the molecule `CN(c1ccc(-c2ccc(-n3cccn3)c(=O)[nH]2)nn1)[C@@H]1C[C@H]2CC[C@@H](C1)N2` [Compound 130, 6-[6-[(1R,3S,5S)-8-azabicyclo[3.2.1]octan-3-yl(methyl)amino]pyridazin-3-yl]-3-(pyrazol-1-yl)-1H-pyridin-2-one], the concentration at half-maximal activity (AC50) in test [1] (setting [5]) was in the range of 100 to 1000 nM; in test [1] (setting [6]) it was 1000 to 10000 nM. For the same molecule, the IC50 was less than 100 nM in test [2], 100 to 1000 nM in test [3] and 1000 to 10000 nM in test [4].
Take `COc1nc(-c2ccc(N(C)[C@@H]3C[C@H]4CC[C@@H](C3)N4)nn2)ccc1-c1cn[nH]c1` [Compound 133, (1R,3S,5S)—N-[6-[6-methoxy-5-(1H-pyrazol-4-yl)pyridin-2-yl]pyridazin-3-yl]-N-methyl-8-azabicyclo[3.2.1]octan-3-amine]: the figures for the AC50 in test [1] (setting [5]) and in test [1] (setting [6]) were less than 100 nM and 100 to 1000 nM, respectively. Moreover, the IC50 in test [2], in test [3] and in test [4] was less than 100 nM each time.
For `COc1nc(-c2ccc(N(C)[C@@H]3CCN[C@H](C)C3)nn2)ccc1-c1cn[nH]c1` [Compound 136, 6-[6-methoxy-5-(1H-pyrazol-4-yl)pyridin-2-yl]-N-methyl-N-[(2R,4R)-2-methylpiperidin-4-yl]pyridazin-3-amine], the AC50 in test [1] (setting [5]) and in test [1] (setting [6]) was 1000 to 10000 nM throughout. Besides, the IC50 was 1000 to 10000 nM in test [3] and 100 to 1000 nM in test [4].
`CN(c1ccc(-c2ccc(-c3cn[nH]c3)c(C#N)n2)nn1)[C@@H]1C[C@H]2CC[C@@H](C1)N2` [Compound 262, 6-{6-[(1R,3R,5S)-8-azabicyclo[3.2.1]octan-3-yl(methyl)amino]pyridazin-3-yl}-3-(1H-pyrazol-4-yl)pyridine-2-carbonitrile]: the AC50 in test [1] (setting [5]) was less than 100 nM; in test [1] (setting [6]), 100 to 1000 nM. Further, the IC50 in test [2] and in test [3] was less than 100 nM throughout.
`COc1nc(-c2ccc(N(C)[C@@H]3C[C@H]4CC[C@@H](C3)N4)nn2)cc(F)c1-c1cn[nH]c1` [Compound 268, (exo)-N-{6-[4-fluoro-6-methoxy-5-(1H-pyrazol-4-yl)pyridin-2-yl]pyridazin-3-yl}-N-methyl-8-azabicyclo[3.2.1]octan-3-amine]: the AC50 in test [1] (setting [5]) and in test [1] (setting [6]) was less than 100 nM throughout. The IC50 in test [2] and in test [3] was less than 100 nM in each case.
Regarding `COc1nc(-c2ccc(N(C)C3C[C@H]4CC[C@@H](C3)N4)nn2)ccc1-c1cnn(C)n1` (stereo partly shown) [Compound 269, N-{6-[6-methoxy-5-(2-methyl-1,2,3-triazol-4-yl)pyridin-2-yl]pyridazin-3-yl}-N-methyl-8-azabicyclo[3.2.1]octan-3-amine], the AC50 in test [1] (setting [5]) and in test [1] (setting [6]) was 100 to 1000 nM each time. Further, the IC50 is 100 to 1000 nM in test [2] and less than 100 nM in test [3].
Consider `COc1nc(-c2ccc(NC3CCNCC3)nn2)ccc1-c1cnn(C)n1` [Compound 270, 6-[6-methoxy-5-(2-methyl-1,2,3-triazol-4-yl)pyridin-2-yl]-N-(piperidin-4-yl)pyridazin-3-amine], for which the AC50 in test [1] (setting [5]) was greater than 10000 nM; in test [1] (setting [6]), 1000 to 10000 nM. For the same molecule, the IC50 in test [2] and in test [3] was 1000 to 10000 nM each time.
For the molecule `COc1nc(-c2ccc(OC3CC(C)(C)NC(C)(C)C3)nn2)ccc1-n1cccn1` [Compound 271, bis(3-[6-methoxy-5-(pyrazol-1-yl)pyridin-2-yl]-6-[(2,2,6,6-tetramethylpiperidin-4-yl)oxy]pyridazine)], the AC50 in test [1] (setting [5]) and in test [1] (setting [6]) was 1000 to 10000 nM each time. Besides, the IC50 in test [2] and in test [3] was 1000 to 10000 nM in each case.
For `COc1nc(-c2ccc(N(C)C3CC(C)(C)NC(C)(C)C3)nn2)ccc1-n1cccn1` [Compound 272, 6-[6-methoxy-5-(pyrazol-1-yl)pyridin-2-yl]-N-methyl-N-(2,2,6,6-tetramethylpiperidin-4-yl) pyridazin-3-amine], the AC50 in test [1] (setting [5]) and in test [1] (setting [6]) was 100 to 1000 nM in each case. Moreover, the IC50 in test [2] and in test [3] was 1000 to 10000 nM throughout.
`CC(C)Oc1nc(-c2ccc(N(C)[C@@H]3C[C@H]4CC[C@@H](C3)N4)nn2)ccc1-c1cn[nH]c1` [Compound 284, (1R,3R,5S)—N-{6-[6-isopropoxy-5-(1H-pyrazol-4-yl)pyridin-2-yl]pyridazin-3-yl}-N-methyl-8-azabicyclo[3.2.1]octan-3-amine]: the figures for the AC50 in test [1] (setting [5]) and in test [1] (setting [6]) were less than 100 nM and 1000 to 10000 nM, respectively. In addition, the IC50 is 100 to 1000 nM in test [2] and less than 100 nM in test [3].
As for `CN(c1ccc(-c2ccc(-c3cn[nH]c3)c(OC3CC3)n2)nn1)[C@@H]1C[C@H]2CC[C@@H](C1)N2` [Compound 286, (1R,3R,5S)—N-{6-[6-cyclopropoxy-5-(1H-pyrazol-4-yl)pyridin-2-yl]pyridazin-3-yl}-N-methyl-8-azabicyclo[3.2.1]octan-3-amine], the AC50 in test [1] (setting [5]) and in test [1] (setting [6]) was less than 100 nM throughout. Besides, the IC50 in test [2] and in test [3] was less than 100 nM in each case.
Regarding `COc1nc(-c2ccc(N(C)[C@@H]3C[C@H]4CC[C@@H](C3)N4)nn2)ccc1-c1cnn(C)c1` [Compound 287, (1R,3s,5S)-N-(6-(6-methoxy-5-(1-methyl-1H-pyrazol-4-yl)pyridin-2-yl)pyridazin-3-yl)-N-methyl-8-azabicyclo [3.2.1] octan-3-amine], the AC50 was less than 100 nM in test [1] (setting [5]) and 100 to 1000 nM in test [1] (setting [6]). Moreover, the IC50 in test [2] and in test [3] was less than 100 nM each time.
Consider `COc1nc(-c2ccc(NC3CCNCC3)nn2)ccc1-n1cccn1` [Compound 288, 6-[6-methoxy-5-(pyrazol-1-yl)pyridin-2-yl]-N-(piperidin-4-yl) pyridazin-3-amine], for which the AC50 in test [1] (setting [5]) and in test [1] (setting [6]) was greater than 10000 nM in each case. The IC50 in test [2] and in test [3] was greater than 10000 nM in each case.
For the molecule `COc1nc(-c2ccc(O[C@@H]3C[C@H]4CC[C@@H](C3)N4)nn2)ccc1-c1cn(C)nn1` [Compound 290, 3-({6-[6-methoxy-5-(1-methyl-1,2,3-triazol-4-yl)pyridin-2-yl]pyridazin-3-yl}oxy)-8-azabicyclo[3.2.1]octane], the results for the AC50 in test [1] (setting [5]) and in test [1] (setting [6]) were 100 to 1000 nM and greater than 10000 nM, respectively. The IC50 in test [2] was 1000 to 10000 nM; in test [3] it was 100 to 1000 nM.

The record behind these values is US20230365526A1, “PYRIDAZINE DERIVATIVES FOR MODULATING NUCLEIC ACID SPLICING” (REMIX THERAPEUTICS INC., priority 2020, published 2023).
